The subject of one data set is Vero C1008. In words: Cytotoxicity of compound against Vero E6 cells by MTT assay. The note with it: chlorocebus sabaeus, vero c1008.
Data set [1] has as its target T1, Muscarinic acetylcholine receptor M1 (Homo sapiens, UniProt P11229).
T1 sequence (P11229 whole entry): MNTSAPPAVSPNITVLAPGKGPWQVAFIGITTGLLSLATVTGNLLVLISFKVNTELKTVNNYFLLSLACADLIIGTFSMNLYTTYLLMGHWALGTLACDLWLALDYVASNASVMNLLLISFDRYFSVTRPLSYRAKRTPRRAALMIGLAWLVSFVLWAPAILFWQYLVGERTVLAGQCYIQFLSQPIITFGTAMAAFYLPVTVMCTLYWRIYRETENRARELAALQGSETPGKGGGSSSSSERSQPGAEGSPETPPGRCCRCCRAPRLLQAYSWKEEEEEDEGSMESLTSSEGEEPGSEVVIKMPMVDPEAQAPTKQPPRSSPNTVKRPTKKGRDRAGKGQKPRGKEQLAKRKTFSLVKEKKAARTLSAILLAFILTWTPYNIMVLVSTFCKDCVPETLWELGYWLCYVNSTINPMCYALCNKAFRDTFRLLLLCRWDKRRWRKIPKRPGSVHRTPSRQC

Data set [2] deals with T2, Muscarinic acetylcholine receptor M2 (Homo sapiens, UniProt P08172).
T2 sequence (P08172 whole entry): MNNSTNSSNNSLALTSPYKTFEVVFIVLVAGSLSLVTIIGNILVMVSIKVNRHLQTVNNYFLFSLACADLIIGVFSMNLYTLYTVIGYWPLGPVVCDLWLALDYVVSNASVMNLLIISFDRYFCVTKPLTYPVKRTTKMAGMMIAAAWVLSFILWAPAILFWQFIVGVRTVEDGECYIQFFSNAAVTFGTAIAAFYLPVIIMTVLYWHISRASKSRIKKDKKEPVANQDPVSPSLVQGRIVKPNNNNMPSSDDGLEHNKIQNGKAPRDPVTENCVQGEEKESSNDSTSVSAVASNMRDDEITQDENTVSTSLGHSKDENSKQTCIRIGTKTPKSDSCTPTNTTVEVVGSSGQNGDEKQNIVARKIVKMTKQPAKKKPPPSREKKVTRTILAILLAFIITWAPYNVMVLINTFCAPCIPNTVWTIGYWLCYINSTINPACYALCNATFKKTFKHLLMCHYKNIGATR
In words: Activity of compound against Muscarinic acetylcholine receptor M2 (CHRM2) by displacement of 3H-QNB.

The target of data set [3] is Muscarinic acetylcholine receptor M3 (Homo sapiens, UniProt P20309).

The structures appear in SMILES notation.

Chain of Muscarinic acetylcholine receptor M3 (P20309 whole entry): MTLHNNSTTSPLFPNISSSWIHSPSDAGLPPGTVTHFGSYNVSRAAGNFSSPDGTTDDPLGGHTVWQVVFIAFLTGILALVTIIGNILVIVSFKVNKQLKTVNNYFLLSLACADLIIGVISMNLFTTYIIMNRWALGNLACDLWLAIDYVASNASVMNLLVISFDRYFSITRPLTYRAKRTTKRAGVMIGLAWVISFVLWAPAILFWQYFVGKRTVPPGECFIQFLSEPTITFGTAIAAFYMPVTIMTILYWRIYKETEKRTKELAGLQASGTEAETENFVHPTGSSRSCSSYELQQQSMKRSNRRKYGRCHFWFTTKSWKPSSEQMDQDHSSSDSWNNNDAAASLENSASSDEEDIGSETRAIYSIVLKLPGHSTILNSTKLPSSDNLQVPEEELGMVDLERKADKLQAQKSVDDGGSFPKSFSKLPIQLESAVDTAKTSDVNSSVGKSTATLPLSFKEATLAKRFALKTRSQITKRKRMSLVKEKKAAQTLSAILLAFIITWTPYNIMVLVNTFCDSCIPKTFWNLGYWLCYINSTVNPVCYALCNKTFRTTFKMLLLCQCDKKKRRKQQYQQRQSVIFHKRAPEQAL

For the compound `CCCN1CCC=C(c2cc(-c3ccc(C)cc3)no2)C1`, the pCC50 in the data set on Vero C1008 is ~ 2.928. Further, the Ki in data set [1] is over 31.6 µM; in data set [2], 24 µM; in data set [3] it was 24 µM.

The values above are taken from ChEMBL document CHEMBL4303773 (Nature, 2020).
